Experimental data reported in paper PMC9061999, “Application of the Adverse Outcome Pathway Concept to In Vitro Nephrotoxicity Assessment: Kidney Injury due to Receptor-Mediated Endocytosis and Lysosomal Overload as a Case Study” (Frontiers in Toxicology, 2022).

Tested on: NRK-52E cells
Assay: High content imaging of lysosomes and nuclei (LysoView 633 / SYTO 16)
Assay type: cell-based, rat
Description: For high content imaging, NRK-52E and RPTEC/TERT1 cells were cultivated in µ-clear half well area microtiter plates (Greiner) according to the protocol described for the cytotoxicity assay with slight modification. Briefly, NRK-52E cells were seeded at 5,000 cells in 100 µL growth medium per well and were incubated under standard growth conditions for 48 h prior to treatment. RPTEC/TERT1 cells were seeded at 15,000 cells in 100 µL growth medium per well and incubated under standard growth conditions for 7–8 days, until cells reached confluence and started to differentiate. This was indicated by the formation of three-dimensional structures referred to as domes which were identified by regular microscopic inspection of the plates. Only differentiated cell cultures with detectable domes were assayed. Cells of both cell lines were treated with serially diluted Polymyxin B sulfate (concentration range 7.8 to 2,000 µM) for 1, 2, 4, 6, or up to 24 h. The assay was carried out on three biological replicates defined as three different non-consecutive passages of the cell culture. Each biological replicate at each treatment concentration was assayed in triplicate wells per plate.
Following treatment, cells were stained with two different combinations of fluorescent dyes: NRK-52E cells with 50 pg/μL LysoView™ 633 (Biotium) and 1 µM SYTO 16 (Thermo Scientific), respectively, for lysosomes and nuclei; RPTEC/TERT1 cells with 10 nM LysoTracker™ Red (Thermo Scientific) and 10 ng/μL Hoechst 33342 (Merck-Sigma Aldrich), respectively, for lysosomes and nuclei. For each cell line a staining solution was obtained by mixing the lysosomes and nuclei dyes in cell culture medium at the concentrations indicated above. […]
Images were acquired with a fully automated fluorescence confocal Opera™ QEHS system (PerkinElmer, United Kingdom) using a ×40 air UPlanApo objective (Olympus) with 0.85 numerical aperture. […]
The images were analyzed by custom-made image analysis scripts either with the imaging analysis software Acapella (version 2.8 PerkinElmer) or Columbus (version 2.4.0 PerkinElmer). […]

Question: Which “Treatment time at which changes in nuclei area and nuclei intensity appeared” value (NRK-52E, 250 µM) does the source give for Polymyxin B here?
Answer: Its value is 20 h.

Question: What about the “Treatment time at which lysosomal effects with nuclear changes first appeared” value (NRK-52E, 500 µM) of the same substance?
Answer: The value was 12 h.

Question: What about the “Treatment time from which lysosomal effects were accompanied by nuclear changes” value (NRK-52E, 1,000 and 2000 µM) of the same substance?
Answer: Its value is 8 h.
